Source: PMC3412067 (Journal of medicinal chemistry, 2012)
“Also recorded” adds a separate entry of the source. Where two headings read alike, the source gives them in different places. Marks after values point to notes of the source that are not given here.

Assays:
MOR-1 (mu) = MOR-1 (mu) (Mus musculus, UniProt P42866); assay: Competition binding against 125I-BNtxA in CHO cells stably expressing MOR-1
KOR-1 (kappa) = KOR-1 (kappa) (Mus musculus, UniProt P33534); assay: Competition binding against 125I-BNtxA in CHO cells stably expressing KOR-1
DOR-1 (delta) = DOR-1 (delta) (Mus musculus, UniProt P32300); assay: Competition binding against 125I-BNtxA in CHO cells stably expressing DOR-1; details: for fold lower affinity for delta receptors: compared to 15
6TM/E11 sites = 6TM/E11 sites (Mus musculus, UniProt P42866); assay type: binding; details: compared to 15
CD-1 mice [1] = assay: Radiant heat tail flick analgesia assay; assay type: in vivo, mouse; details: for analgesic activity (in words): tail flick, doses as high as 10 mg/kg
mice [2] = assay: Respiratory depression assay; assay type: in vivo, mouse; details: 15 2.5 mg/kg s.c., morphine 20 mg/kg s.c., about 4-fold analgesic ED50; n=5
CD-1 mice [3] = details: cited from earlier work
knockout mouse = details: cited from earlier work
mice [4] = details: cited from earlier work
mice [5] = details: cited from earlier work; remark: listed apart in the source
mice [6] = details: cited from earlier work; remark: listed apart in the source
[7] = cited from earlier work

## C=CCN1CC[C@]23c4c5ccc(O)c4O[C@H]2[C@@H](NC(=O)c2cccc(I)c2)CC[C@@]3(O)[C@H]1C5 [Compound 16, 17-Allyl-3,14β-dihydroxy-4,5α-epoxy-6α-[(3′-iodo)benzamido]morphinan]
MOR-1 (mu); compared to 15
  fold lower affinity for mu receptors: 23 fold
KOR-1 (kappa); compared to 15
  fold lower affinity for kappa receptors: 150 fold
DOR-1 (delta)
  fold lower affinity for delta receptors: 3 fold
6TM/E11 sites
  fold lower binding affinity for the 6TM/E11 site: 33 fold
CD-1 mice [1]; compared to 15
  fold higher ED50 / lower analgesic activity: 10 fold

## C=CCN1CC[C@]23c4c5ccc(O)c4O[C@H]2[C@H](NC(=O)c2ccc(-c4ccccc4)cc2)CC[C@@]3(O)[C@H]1C5 [Compound 32, 17-Allyl-3,14β-dihydroxy-4,5α-epoxy-6β-[(4′-phenyl)benzamido]morphinan]
CD-1 mice [1]; s.c.
  analgesic activity (in words): not analgesic

## CN1CC[C@]23c4c5ccc(O)c4O[C@H]2[C@H](NC(=O)c2cccc(I)c2)CC[C@@]3(O)[C@H]1C5 [Compound 14]
CD-1 mice [1]; s.c.
  analgesic activity (in words): No analgesia could be detected

## C=CCN1CC[C@]23c4c5ccc(O)c4O[C@H]2[C@H](NC(=O)CCCCC)CC[C@@]3(O)[C@H]1C5 [Compound 34, 17-Allyl-3,14β-dihydroxy-4,5α-epoxy-6β-(hexylamido)morphinan]
KOR-1 (kappa)
  Ki: 9.15 ± 0.94 nM

## C=CCN1CC[C@]23c4c5ccc(O)c4O[C@H]2[C@H](NC(=O)c2cccc(I)c2)CC[C@@]3(O)[C@H]1C5 [Compound 15, 17-Allyl-3,14β-dihydroxy-4,5α-epoxy-6β-[(3′-iodo)benzamido]morphinan]
MOR-1 (mu); compared to 1
  fold lower affinity for mu receptors: about 2 fold
KOR-1 (kappa); compared to 1
  fold lower affinity for kappa receptors: about 2 fold
CD-1 mice [1]; compared to morphine
  fold more potent an analgesic than morphine: 10 fold
Mice [2]
  effect on respiratory rate (in words): did not depress respiratory rate; also recorded: no respiratory depression

## C=CCN1CC[C@]23c4c5ccc(O)c4O[C@H]2[C@H](NC(=O)c2cccc(OC)c2)CC[C@@]3(O)[C@H]1C5 [Compound 25, 17-Allyl-3,14β-dihydroxy-4,5α-epoxy-6β-[(3′-methoxy)benzamido]morphinan]
MOR-1 (mu); mu vs delta
  fold mu selectivity over delta: 100 fold
6TM/E11 sites
  fold lower binding affinity for the 6TM/E11 site: 10 fold
CD-1 mice [1]; compared to 15
  fold greater analgesic potency: over 3 fold
CD-1 mice [1]; s.c.
  analgesic activity (in words): potent analgesic actions

## CN1CC[C@]23c4c5ccc(O)c4O[C@H]2[C@@H](O)C=C[C@H]3[C@H]1C5 [morphine, reference compound]
Mice [2]
  effect on respiratory rate (in words): decreases respiratory depression

## 17-Allyl-3,14β-dihydroxy-4,5α-epoxy-6β-[2-adamantylamido]morphinan [Compound 37]
CD-1 mice [1]; s.c., CD-1 mice, radiant heat tail flick, (95% confidence limits)
  Tail flick analgesia ED50 mg/kg (95%CL): >10 mg/kg

## O=C(NC1CCC2(O)C3Cc4ccc(O)c5c4C2(CCN3CC2CC2)C1O5)c1cccc(I)c1 (stereo not shown) [Compound 125IBNtxA, reference compound]
MOR-1 (mu); read-out: 125IBNtxA KD MOR-1, radioligand KD
  Kd: 0.11 nM
KOR-1 (kappa); read-out: 125IBNtxA KD KOR-1, radioligand KD
  Kd: 0.03 nM
DOR-1 (delta); read-out: 125IBNtxA KD DOR-1, radioligand KD
  Kd: 0.24 nM

## C=CCN1CC[C@]23c4c5ccc(O)c4O[C@H]2[C@H](NC(=O)c2ccccc2)CC[C@@]3(O)[C@H]1C5 [Compound 22, 17-Allyl-3,14β-dihydroxy-4,5α-epoxy-6β-(benzamido)morphinan]
MOR-1 (mu); compared to 15
  fold lower affinity for mu receptors: about 20 fold
KOR-1 (kappa); compared to 15
  fold lower affinity for kappa receptors: ~180 fold
DOR-1 (delta)
  fold lower affinity for delta receptors: ~25 fold
6TM/E11 sites
  fold lower binding affinity for the 6TM/E11 site: over 20 fold

## C=CCN1CC[C@]23c4c5ccc(O)c4O[C@H]2[C@H](NC(=O)c2ccccc2I)CC[C@@]3(O)[C@H]1C5 [Compound 17, 17-Allyl-3,14β-dihydroxy-4,5α-epoxy-6β-[(2′-iodo)benzamido]morphinan]
MOR-1 (mu); compared to 15
  fold lower affinity for mu receptors: approximately 10 fold
KOR-1 (kappa); compared to 15
  fold lower affinity for kappa receptors: approximately 10 fold
DOR-1 (delta)
  fold lower affinity for delta receptors: approximately 10 fold
6TM/E11 sites
  fold lower binding affinity for the 6TM/E11 site: 100 fold
CD-1 mice [1]; s.c.
  analgesic activity (in words): eliminated its analgesic activity

## O=C(N[C@@H]1CC[C@@]2(O)[C@H]3Cc4ccc(O)c5c4[C@@]2(CCN3CC2CC2)[C@H]1O5)c1cccc(I)c1 [Compound 1, 3-Iodobenzoylnaltrexamide]
CD-1 mice [3]; (95% confidence limits), values from the literature ref 26
  Tail flick analgesia ED50 mg/kg (95%CL): 0.39 (0.15, 0.58) ^a mg/kg
CD-1 mice [3]
  cross tolerance to morphine (in words): no observable
CD-1 mice [3]; compared to morphine ref 26
  analgesic potency fold greater than morphine: 10 fold
Knockout mouse; E11 knockout mouse, disruption of exon 11-associated variants ref 26
  analgesic activity in E11 knockout mouse (in words): without activity
Knockout mouse; triple knockout mouse lacking traditional mu, delta and kappa1 receptors ref 26
  analgesic activity in MOR-1/DOR-1/KOR-1 triple knockout mouse (in words): retained full analgesic activity
Mice [4]
  respiratory depression (in words): no observable respiratory depression
Mice [5]
  inhibition of gastrointestinal transit (in words): limited inhibition of gastrointestinal transit
Mice [6]
  physical dependence (in words): no observable
[7]
  rewarding behavior in the conditioned place preference assay (in words): no observable

## C=CCN1CC[C@]23c4c5ccc(O)c4O[C@H]2[C@H](NC(=O)c2cccc(C(F)(F)F)c2)CC[C@@]3(O)[C@H]1C5 [Compound 24, 17-Allyl-3,14β-dihydroxy-4,5α-epoxy-6β-[(3′-trifluoromethyl)benzamido]morphinan]
CD-1 mice [1]; s.c.
  analgesic activity (in words): potent analgesic actions
